Data on nine molecules can be found in patent publication US20250223268A1, “4-Methylsulfonylbenzamide Compound, Preparation Method, Herbicidal Composition And Use” (Jiangsu Flag Chemical Industry Co., Ltd., priority 2022, published 2025).

Holding throughout (format): in vivo
For data set [1], the system named is Digitaria sanguinalis. Description: Greenhouse herbicidal activity and crop safety comparison (Test Example 2). The method, boiled down:
(§1)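 Fresh weight inhibition, banded into grades A to E (E <20%), was rated 14-21 days after foliar spraying of 3-6 leaf plants, or 14-30 days after a soil spray applied 24 h post-sowing.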

A further data set concerns Zea mays. Described as above. In short, it runs like this:
as §1

For a further data set, the system named is Cyperus iria. The data set can be described thus: Greenhouse herbicidal activity assay, post-emergence. As to conditions: Post-emergence test, rate 150 g a.i./hm^2, grade by fresh weight inhibition rate; for pest or weed control at 150 g/ha: Cyperus iria, read-out: Control efficacy grade, Cyperus iria. The method, boiled down: (§2)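 Weeds were sown in nutrient soil in 7 cm pots and grown in a growth chamber to the 3-6 leaf stage, then foliar-sprayed, air-dried and returned to the chamber. Fresh weight inhibition was scored 14-21 days later in bands from A (≥80% to 100%) to E (<20%).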

The test system of data set [2] is Digitaria sanguinalis. The description is as above. As to conditions: Post-emergence test, rate 150 g a.i./hm^2, grade by fresh weight inhibition rate; for pest or weed control at 150 g/ha: Digitaria sanguinalis, read-out: Control efficacy grade, Digitaria sanguinalis. The method, boiled down: as §2
Data set [3] relates to Echinochloa crusgalli. Described as above. As to conditions: Post-emergence test, rate 150 g a.i./hm^2, grade by fresh weight inhibition rate; for pest or weed control at 150 g/ha: Echinochloa crus-galli, read-out: Control efficacy grade, Echinochloa crusgalli. The method, boiled down: as §2
A further data set deals with Eclipta prostrata. Described as above. As to conditions: Post-emergence test, rate 150 g a.i./hm^2, grade by fresh weight inhibition rate; for pest or weed control at 150 g/ha: Eclipta prostrata, read-out: Control efficacy grade, Eclipta prostrata. In short, it runs like this: as §2
The subject of data set [4] is Leptochloa chinensis. The data set is described as above. As to conditions: Post-emergence test, rate 150 g a.i./hm^2, grade by fresh weight inhibition rate; for pest or weed control at 150 g/ha: Dinebra chinensis, read-out: Control efficacy grade, Leptochloa chinensis. The method, boiled down:
as §2

Data set [5] relates to Echinochloa crusgalli. The data set can be described thus: Greenhouse herbicidal activity and crop safety comparison (Test Example 2). The following applies: for inhibition at 75 g/ha / inhibition at 150 g/ha: Echinochloa crus-galli, read-out: Echinochloa crusgalli, control efficacy grading (fresh weight inhibition rate); for inhibition at 75 g/ha: Rate 75 g/ha; for inhibition at 150 g/ha / Echinochloa crusgalli, control efficacy grading (fresh weight inhibition rate): Rate 150 g/ha. The method, boiled down:
as §1

Data set [6] concerns Oryza sativa subsp. indica. The data set is described as above. The method, boiled down: as §1
Data set [7] relates to Oryza sativa subsp. japonica. Described as above. The method, boiled down:
as §1

The test system of data set [8] is Leptochloa chinensis. The description is as above. As to conditions: Rate 150 g/ha. The method, boiled down: as §1
[9] abbreviates: Digitaria sanguinalis, Rate 75 g/ha, read-out: Digitaria sanguinalis, control efficacy grading (fresh weight inhibition rate).
[10] abbreviates: Digitaria sanguinalis, Rate 150 g/ha, read-out: Digitaria sanguinalis, control efficacy grading (fresh weight inhibition rate).

As usually defined, the inhibition is the relative decrease from the control value, in per cent.

With `CCC[S+]([O-])c1c(S(C)(=O)=O)ccc(C(=O)Nc2nonc2C)c1Cl` (racemic) [Compound 4-2, 2-chloro-N-(4-methyl-1,2,5-oxadiazol-3-yl)-4-(methylsulfonyl)-3-(propylsulfinyl)benzamide], the inhibition at 75 g/ha with Digitaria sanguinalis [1] (setting [9]) fell in the range of 80 to 100%. For the same molecule, in the data set on Digitaria sanguinalis [1] (setting [10]), the inhibition at 150 g/ha was 80 to 100%. Further, the “Zea mays, grading of fresh weight inhibition rate (crop safety)” value in the data set with Zea mays (Rate 18.75 g/ha), with Zea mays (Rate 75 g/ha) and in the data set with Zea mays (Rate 150 g/ha) was “E (Fresh weight inhibition rate<20%)” throughout. Also, the pest or weed control at 150 g/ha with Cyperus iria, in the data set with Digitaria sanguinalis [2], in the data set on Echinochloa crusgalli [3], in the data set with Eclipta prostrata and in the data set on Leptochloa chinensis [4] was 80 to 100% each time.

As for `CCC[S+]([O-])c1c(S(C)(=O)=O)ccc(C(=O)Nc2nonc2C)c1Cl` (single isomer, unassigned) [Compound 4-3], the “Digitaria sanguinalis, control efficacy grading (fresh weight inhibition rate)” value in the data set on Digitaria sanguinalis [1] (Rate 18.75 g/ha), with Digitaria sanguinalis [1] (Rate 75 g/ha) and in the data set on Digitaria sanguinalis [1] (Rate 150 g/ha) was “A (Fresh weight inhibition rate≥80% to 100%)” each time. Further, the “Zea mays, grading of fresh weight inhibition rate (crop safety)” value in the data set with Zea mays (Rate 18.75 g/ha), with Zea mays (Rate 75 g/ha) and in the data set with Zea mays (Rate 150 g/ha) was “E (Fresh weight inhibition rate<20%)” each time. Moreover, in the data set with Cyperus iria, the “Control efficacy grade, Cyperus iria” value is “A (Fresh weight inhibition rate≥80% to 100%)”. The “Control efficacy grade, Digitaria sanguinalis” value in the data set with Digitaria sanguinalis [2] was “A (Fresh weight inhibition rate≥80% to 100%)”. Besides, the “Control efficacy grade, Echinochloa crusgalli” value with Echinochloa crusgalli [3] was “A (Fresh weight inhibition rate≥80% to 100%)”. In addition, the “Control efficacy grade, Eclipta prostrata” value in the data set on Eclipta prostrata is given as “A (Fresh weight inhibition rate≥80% to 100%)”. The “Control efficacy grade, Leptochloa chinensis” value in the data set on Leptochloa chinensis [4] was “A (Fresh weight inhibition rate≥80% to 100%)”.

As to `CCC[S+]([O-])c1c(S(C)(=O)=O)ccc(C(=O)Nc2nonc2C)c1Cl` (single isomer, unassigned) [Compound 4-4], the “Digitaria sanguinalis, control efficacy grading (fresh weight inhibition rate)” value in the data set with Digitaria sanguinalis [1] (Rate 75 g/ha) and in the data set on Digitaria sanguinalis [1] (Rate 150 g/ha) was “A (Fresh weight inhibition rate≥80% to 100%)” in each case. The “Zea mays, grading of fresh weight inhibition rate (crop safety)” value in the data set on Zea mays (Rate 18.75 g/ha), in the data set with Zea mays (Rate 75 g/ha) and in the data set on Zea mays (Rate 150 g/ha) was “E (Fresh weight inhibition rate<20%)” each time. Further, in the data set on Cyperus iria, the “Control efficacy grade, Cyperus iria” value is “A (Fresh weight inhibition rate≥80% to 100%)”. In the data set on Digitaria sanguinalis [2], the “Control efficacy grade, Digitaria sanguinalis” value was “A (Fresh weight inhibition rate≥80% to 100%)”. The “Control efficacy grade, Echinochloa crusgalli” value in the data set with Echinochloa crusgalli [3] is reported as “A (Fresh weight inhibition rate≥80% to 100%)”. Also, the “Control efficacy grade, Eclipta prostrata” value with Eclipta prostrata is “A (Fresh weight inhibition rate≥80% to 100%)”. In addition, the “Control efficacy grade, Leptochloa chinensis” value in the data set on Leptochloa chinensis [4] is recorded as “A (Fresh weight inhibition rate≥80% to 100%)”.

For the molecule `Cn1ncnc1NC(=O)c1ccc(S(C)(=O)=O)c(S(C)(=O)=O)c1Cl` [CK3, reference compound], the inhibition at 75 g/ha is less than 20% in the data set on Digitaria sanguinalis [1] (setting [9]) and 40 to 60% with Echinochloa crusgalli [5]. Moreover, the inhibition at 150 g/ha in the data set with Digitaria sanguinalis [1] (setting [10]) was in the range of 20 to 40%; in the data set on Echinochloa crusgalli [5] it was 80 to 100%. For the same molecule, the “Oryza sativa subsp. indica, grading of fresh weight inhibition rate (crop safety)” value in data set [6] (Rate 75 g/ha) is listed as “D (Fresh weight inhibition rate≥20% to <40%)”; in data set [6] (Rate 150 g/ha), “B (Fresh weight inhibition rate≥260% to <80%)”. The “Oryza sativa subsp. japonica, grading of fresh weight inhibition rate (crop safety)” value in [7] (Rate 75 g/ha) was “D (Fresh weight inhibition rate≥20% to <40%)”; in data set [7] (Rate 150 g/ha), “C (Fresh weight inhibition rate≥40% to <60%)”. Moreover, the “Zea mays, grading of fresh weight inhibition rate (crop safety)” value in the data set on Zea mays (Rate 75 g/ha) is recorded as “E (Fresh weight inhibition rate<20%)”; in the data set on Zea mays (Rate 150 g/ha), “D (Fresh weight inhibition rate≥20% to <40%)”.

`CCS(=O)(=O)c1c(S(C)(=O)=O)ccc(C(=O)Nc2ncnn2C)c1Cl` [CK4, reference compound]: the inhibition at 75 g/ha with Digitaria sanguinalis [1] (setting [9]) lay within 20 to 40%; with Echinochloa crusgalli [5], 40 to 60%. For the same molecule, in the data set with Digitaria sanguinalis [1] (setting [10]), the inhibition at 150 g/ha lay within 40 to 60%. For the same molecule, the “Oryza sativa subsp. indica, grading of fresh weight inhibition rate (crop safety)” value in [6] (Rate 75 g/ha) is “C (Fresh weight inhibition rate≥40% to <60%)”; in data set [6] (Rate 150 g/ha) it was “B (Fresh weight inhibition rate≥260% to <80%)”. Also, the “Oryza sativa subsp. japonica, grading of fresh weight inhibition rate (crop safety)” value in data set [7] (Rate 75 g/ha) and in data set [7] (Rate 150 g/ha) was “C (Fresh weight inhibition rate≥40% to <60%)” each time. For the same molecule, the “Zea mays, grading of fresh weight inhibition rate (crop safety)” value in the data set on Zea mays (Rate 75 g/ha) is on record as “E (Fresh weight inhibition rate<20%)”; with Zea mays (Rate 150 g/ha) it was “D (Fresh weight inhibition rate≥20% to <40%)”.

As to `Cc1nonc1NC(=O)c1ccc(S(C)(=O)=O)c([S+](C)[O-])c1Cl` (centres unmarked) [CK6, reference compound], the inhibition at 18.75 g/ha with Digitaria sanguinalis [1] (Digitaria sanguinalis, Rate 18.75 g/ha, read-out: Digitaria sanguinalis, control efficacy grading (fresh weight inhibition rate)) is less than 20%. Also, the inhibition at 75 g/ha in the data set with Digitaria sanguinalis [1] (setting [9]) was 40 to 60%. Moreover, the inhibition at 150 g/ha with Digitaria sanguinalis [1] (setting [10]) lay in the range of 40 to 60%. The “Zea mays, grading of fresh weight inhibition rate (crop safety)” value was “E (Fresh weight inhibition rate<20%)” in the data set with Zea mays (Rate 18.75 g/ha), “D (Fresh weight inhibition rate≥20% to <40%)” in the data set on Zea mays (Rate 75 g/ha) and “D (Fresh weight inhibition rate≥20% to <40%)” with Zea mays (Rate 150 g/ha).

For the molecule `CC(C)S(=O)(=O)c1c(S(C)(=O)=O)ccc(C(=O)Nc2nnc(C3CC3)o2)c1Cl` [Compound 3-624, 2-chloro-N-(5-cyclopropyl-1,3,4-oxadiazol-2-yl)-3-(isopropylsulfonyl)-4-(methylsulfonyl)benzamide], the inhibition at 150 g/ha in the data set with Echinochloa crusgalli [5] lay within 80 to 100%; in the data set on Leptochloa chinensis [8] (Dinebra chinensis, read-out: Leptochloa chinensis, control efficacy grading (fresh weight inhibition rate)), 80 to 100%. Also, the “Oryza sativa subsp. indica, grading of fresh weight inhibition rate (crop safety)” value in [6] (Rate 150 g/ha) is “E (Fresh weight inhibition rate<20%)”. Moreover, the “Oryza sativa subsp. japonica, grading of fresh weight inhibition rate (crop safety)” value in data set [7] (Rate 150 g/ha) is “E (Fresh weight inhibition rate<20%)”. Further, the pest or weed control at 150 g/ha in the data set with Cyperus iria, in the data set on Digitaria sanguinalis [2], with Echinochloa crusgalli [3], with Eclipta prostrata and in the data set with Leptochloa chinensis [4] was 80 to 100% throughout.

As to `CS(=O)(=O)c1ccc(C(=O)Nc2nnc(C3CC3)o2)c(Cl)c1S(=O)(=O)C1CC1` [Compound 3-655], the “Echinochloa crusgalli, control efficacy grading (fresh weight inhibition rate)” value with Echinochloa crusgalli [5] was “A (Fresh weight inhibition rate≥80% to 100%)”. In addition, the “Leptochloa chinensis, control efficacy grading (fresh weight inhibition rate)” value with Leptochloa chinensis [8] is on record as “A (Fresh weight inhibition rate≥80% to 100%)”. The “Oryza sativa subsp. indica, grading of fresh weight inhibition rate (crop safety)” value in [6] (Rate 150 g/ha) is “E (Fresh weight inhibition rate<20%)”. In data set [7] (Rate 150 g/ha), the “Oryza sativa subsp. japonica, grading of fresh weight inhibition rate (crop safety)” value is given as “E (Fresh weight inhibition rate<20%)”. Besides, in the data set on Cyperus iria, the “Control efficacy grade, Cyperus iria” value was “A (Fresh weight inhibition rate≥80% to 100%)”. Besides, the “Control efficacy grade, Digitaria sanguinalis” value in the data set on Digitaria sanguinalis [2] was “A (Fresh weight inhibition rate≥80% to 100%)”. In addition, the “Control efficacy grade, Echinochloa crusgalli” value with Echinochloa crusgalli [3] was “A (Fresh weight inhibition rate≥80% to 100%)”. In addition, the “Control efficacy grade, Eclipta prostrata” value with Eclipta prostrata is recorded as “A (Fresh weight inhibition rate≥80% to 100%)”. Also, the “Control efficacy grade, Leptochloa chinensis” value with Leptochloa chinensis [4] is reported as “A (Fresh weight inhibition rate≥80% to 100%)”.

For `C=CCS(=O)(=O)c1c(S(C)(=O)=O)ccc(C(=O)Nc2nnc(C3CC3)o2)c1Cl` [Compound 3-690], the “Echinochloa crusgalli, control efficacy grading (fresh weight inhibition rate)” value in the data set with Echinochloa crusgalli [5] is given as “A (Fresh weight inhibition rate≥80% to 100%)”. Further, the “Leptochloa chinensis, control efficacy grading (fresh weight inhibition rate)” value in the data set on Leptochloa chinensis [8] is “A (Fresh weight inhibition rate≥80% to 100%)”. Besides, the “Oryza sativa subsp. indica, grading of fresh weight inhibition rate (crop safety)” value in [6] (Rate 150 g/ha) was “E (Fresh weight inhibition rate<20%)”. Moreover, in [7] (Rate 150 g/ha), the “Oryza sativa subsp. japonica, grading of fresh weight inhibition rate (crop safety)” value is “E (Fresh weight inhibition rate<20%)”. Further, the “Control efficacy grade, Cyperus iria” value in the data set with Cyperus iria was “A (Fresh weight inhibition rate≥80% to 100%)”. Besides, in the data set on Digitaria sanguinalis [2], the “Control efficacy grade, Digitaria sanguinalis” value is given as “B (Fresh weight inhibition rate≥260% to <80%)”. For the same molecule, the “Control efficacy grade, Echinochloa crusgalli” value with Echinochloa crusgalli [3] is “A (Fresh weight inhibition rate≥80% to 100%)”. The “Control efficacy grade, Eclipta prostrata” value in the data set on Eclipta prostrata was “A (Fresh weight inhibition rate≥80% to 100%)”. For the same molecule, the “Control efficacy grade, Leptochloa chinensis” value in the data set with Leptochloa chinensis [4] is “A (Fresh weight inhibition rate≥80% to 100%)”.
